These are literature values, as cited in PMC2924185 (Journal of the American Chemical Society, 2010).

The subject of this data set is panel of human protein kinases. The settings on record: for selectivity score: judged by similar criteria.

Regarding `Cc1ccc(-c2nn(C(C)(C)C)c3ncnc(N)c23)cc1` [PP1], the “potency among Src-family kinases (in words)” value was “significantly more potent against Src-family members Fyn, Hck, and Lyn than against Src itself”.
Take `CC(C)(C)n1nc(-c2ccc(Cl)cc2)c2c(N)ncnc21` [PP2]: the “potency among Src-family kinases (in words)” value was “significantly more potent against Src-family members Fyn, Hck, and Lyn than against Src itself”.
Take `CNC(=O)c1cc(Oc2ccc(NC(=O)Nc3ccc(Cl)c(C(F)(F)F)c3)cc2)ccn1` [sorafenib]: the selectivity score is recorded as 0.10.
For `CN[C@@H]1C[C@H]2O[C@@](C)([C@@H]1OC)n1c3ccccc3c3c4c(c5c6ccccc6n2c5c31)C(=O)NC4` [staurosporine], the selectivity score is listed as 0.50.
